Data as given in ChEMBL document CHEMBL5576039, “Novel naphthoquinone-1H-1,2,3-triazole hybrids: Design, synthesis and evaluation as inductors of ROS-mediated apoptosis in the MCF-7 cells” (Bioorg Med Chem, 2024).
Active and inactive are the calls of the source. The calls are words filed in the database; no cut-off is given here.

What was measured:
MDA-MB-231 [1] = test: Increase in ROS production in human MDA-MB-231 cells assessed as increase in ROS-positive cells at 6 to 12 uM incubated for 2 to 24 hrs by DCFDA/7-AAD staining based flow cytometry; format: functional, cell-based; conditions: dose 6-12 µM, time 2-24 hrs
MCF7 [2] = test: Induction of cell death in human MCF7 cells assessed as reduction in number of live cells at 12 uM incubated for 4 hrs by AnnexinV/7-AAD staining based flow cytometry; format: functional
MCF7 [3] = test: Activation of AMPK in human MCF7 cells assessed as reduction in S6 phosphorylation at Ser235/236 residue at 6 to 12 uM incubated for 2 hrs by western blot analysis; format: cell-based; conditions: filed as activator, dose 6-12 µM
MCF-10A [4] = test: Cytotoxicity against human MCF-10A cells assessed as reduction in cell viability incubated for 24 hrs by MTT assay; format: toxicity, cell-based
MDA-MB-231 [5] = test: Activation of AMPK in human MDA-MB-231 cells assessed as reduction in p70S6K phosphorylation at Thr421/Ser424 residue at 6 to 12 uM incubated for 2 hrs by western blot analysis; format: cell-based; conditions: filed as activator, dose 6-12 µM
MCF7 [6] = test: Cytotoxicity against human MCF7 cells assessed as reduction in cell viability incubated for 2 to 24 hrs by MTT assay; format: functional, cell-based; conditions: dose 6-12 µM, time 2-24 hrs
MDA-MB-231 [7] = test: Induction of apoptotic cell death in human MDA-MB-231 cells assessed as increase in AnnexinV-positive cells at 3 to 12 uM incubated for 2 hrs by AnnexinV/7-AAD staining based flow cytometry; format: functional; conditions: dose 3-12 µM
MDA-MB-231 [8] = test: Cytotoxicity against human MDA-MB-231 cells assessed as reduction in cell viability incubated for 24 hrs by MTT assay; format: functional, cell-based; conditions: MDA-MB-231, 24 h
MCF-10A [9] = test: Induction of apoptotic cell death in human MCF-10A cells assessed as increase in AnnexinV-positive cells at 12 uM incubated for 2 hrs by AnnexinV/7-AAD staining based flow cytometry; format: toxicity
MDA-MB-231 [10] = test: Activation of AMPK in human MDA-MB-231 cells assessed as increase in AMPK phosphorylation at Thr172 residue at 12 uM incubated for 2 hrs by western blot analysis; format: cell-based; conditions: filed as activator
MCF7 [11] = test: Activation of AMPK in human MCF7 cells assessed as increase in ACC phosphorylation at Ser79 residue at 12 uM incubated for 2 hrs by western blot analysis; format: cell-based; conditions: filed as activator
MCF7 [12] = test: Cytotoxicity against human MCF7 cells assessed as reduction in cell viability at 6 uM incubated for 24 hrs by MTT assay; format: functional, cell-based
MCF7 [13] = test: Cytotoxicity against human MCF7 cells assessed as reduction in cell viability at 6 to 12 uM by MTT assay; format: functional, cell-based; conditions: dose 6-12 µM, time 2-24 hrs, TDE = time-dependent effect
MCF7 [14] = test: Activation of AMPK in human MCF7 cells assessed as reduction in mTOR phosphorylation at Ser2448 residue at 6 to 12 uM incubated for 2 hrs by western blot analysis; format: cell-based; conditions: filed as activator, dose 6-12 µM
MCF7 [15] = test: Cytotoxicity against human MCF7 cells assessed as reduction in cell viability incubated for 24 hrs by MTT assay; format: functional, cell-based; conditions: MCF7, 24 h
MCF7 [16] = test: Induction of apoptotic cell death in human MCF7 cells at 6 to 12 uM by AnnexinV/7-AAD staining based flow cytometry; format: functional; conditions: dose 6-12 µM, time 12-24 hrs, TDE = time-dependent effect
MCF7 [17] = test: Induction of cell death in human MCF7 cells assessed as proportion of live cells at 12 uM incubated for 12 hrs by AnnexinV/7-AAD staining based flow cytometry; format: functional
MCF7 [18] = test: Activation of AMPK in human MCF7 cells assessed as increase in AMPK phosphorylation at Thr172 residue at 12 uM incubated for 2 hrs by western blot analysis; format: cell-based; conditions: filed as activator
MCF7 [19] = test: Induction of apoptotic cell death in human MCF7 cells incubated for 12 to 24 hrs by AnnexinV/7-AAD staining based flow cytometry; format: functional; conditions: dose 6-12 µM, time 12-24 hrs
MDA-MB-231 [20] = test: Activation of AMPK in human MDA-MB-231 cells assessed as reduction in S6 phosphorylation at Ser235/236 residue at 6 to 12 uM incubated for 2 hrs by western blot analysis; format: cell-based; conditions: filed as activator, dose 6-12 µM
MCF7 [21] = test: Cytotoxicity against human MCF7 cells assessed as reduction in cell viability at 12 uM incubated for 24 hrs by MTT assay; format: functional, cell-based
MCF7 [22] = test: Induction of cell death in human MCF7 cells assessed as proportion of live cells at 6 uM incubated for 12 hrs by AnnexinV/7-AAD staining based flow cytometry; format: functional
MCF7 [23] = test: Increase in ROS production in human MCF7 cells assessed as increase in ROS-positive cells at 6 to 12 uM incubated for 2 hrs by DCFDA/7-AAD staining based flow cytometry; format: functional, cell-based; conditions: dose 6-12 µM
MDA-MB-231 [24] = test: Activation of AMPK in human MDA-MB-231 cells assessed as increase in ACC phosphorylation at Ser79 residue at 12 uM incubated for 2 hrs by western blot analysis; format: cell-based; conditions: filed as activator
MDA-MB-231 [25] = test: Induction of apoptotic cell death in human MDA-MB-231 cells assessed as increase in AnnexinV-positive cells at 1 uM incubated for 2 hrs by AnnexinV/7-AAD staining based flow cytometry; format: functional
MCF7 [26] = test: Induction of apoptotic cell death in human MCF7 cells assessed as increase in AnnexinV-positive cells at 1 uM incubated for 2 hrs by AnnexinV/7-AAD staining based flow cytometry; format: functional
MCF-10A [27] = test: Induction of apoptotic cell death in human MCF-10A cells assessed as increase in AnnexinV-positive cells at 1 uM incubated for 2 hrs by AnnexinV/7-AAD staining based flow cytometry; format: toxicity
MCF7 [28] = test: Cytotoxicity against human MCF7 cells assessed as reduction in cell viability at 50 uM incubated for 24 hrs by MTT assay; format: functional, cell-based
MCF7 [29] = test: Increase in ROS production in human MCF7 cells assessed as increase in ROS-positive cells at 6 to 12 uM incubated for 4 hrs by DCFDA/7-AAD staining based flow cytometry; format: functional, cell-based; conditions: dose 6-12 µM
MCF7 [30] = test: Induction of apoptotic cell death in human MCF7 cells assessed as increase in AnnexinV-positive cells at 3 uM incubated for 2 hrs by AnnexinV/7-AAD staining based flow cytometry; format: functional

`CC(C)=CC1=C(OCc2cn(C(C)C3=C(C)C(=O)c4ccccc4C3=O)nn2)C(=O)c2ccccc2C1=O` (stereo unspecified) was tested, and the Activity (MDA-MB-231 [1]) was “inactive”, the Activity (MCF7 [2]) was “Active” and the Activity (MCF7 [3]) was “Active”. For the same molecule, the Activity (MCF-10A [4]) was “Non-Toxic”, the Activity (MDA-MB-231 [5]) was “Active” and the Activity (MCF7 [6]) was “Dose-Dependent Effect”. For the same molecule, the Activity (MDA-MB-231 [7]) was “inactive”, the IC50 (MDA-MB-231 [8]) was 9.2 µM and the Activity (MCF-10A [9]) was “Toxic”. The Activity (MDA-MB-231 [10]) was “Active”, the Activity (MCF7 [11]) was “Active” and the Activity (MCF7 [12]) was “Active”. For the same molecule, the Activity (MCF7 [13]) was “Tde”, the Activity (MCF7 [14]) was “Active” and the IC50 (MCF7 [15]) was 4.3 µM. The Activity (MCF7 [16]) was “Tde”, the Activity (MCF7 [17]) was less than 95% and the Activity (MCF7 [18]) was “Active”. For the same molecule, the Activity (MCF7 [19]) was “Dose-Dependent Effect”, the Activity (MDA-MB-231 [20]) was “Active” and the Activity (MCF7 [21]) was “Active”. For the same molecule, the Activity (MCF7 [22]) was less than 75%, the Activity (MCF7 [23]) was “Active” and the Activity (MDA-MB-231 [24]) was “Active”.
In the case of `COc1cccc2c1C(=O)c1c(O)c3c(c(O)c1C2=O)C[C@@](O)(C(=O)CO)C[C@@H]3O[C@H]1C[C@H](N)[C@H](O)[C@H](C)O1` [DOXORUBICIN], the Activity (MDA-MB-231 [25]) is reported as “Active”, the Activity (MCF7 [26]) is reported as “inactive” and the Activity (MCF-10A [27]) is reported as “Toxic”.
With `CC(C)=CCC1=C(OCc2cn(C(C3=C(C)C(=O)c4ccccc4C3=O)c3ccc(F)cc3)nn2)C(=O)c2ccccc2C1=O` (stereo unspecified) the Activity (MCF7 [28]) was “inactive”.
For `CC1=C(C(c2ccccc2)n2cc(CNC3=CC(=O)c4ccccc4C3=O)nn2)C(=O)c2ccccc2C1=O` (stereo unspecified), the Activity (MCF7 [28]) was “inactive”.
`CC1=C(C(c2ccc(Cl)cc2)n2cc(CNC3=CC(=O)c4ccccc4C3=O)nn2)C(=O)c2ccccc2C1=O` (stereo unspecified) was tested, and the Activity (MCF7 [28]) was “inactive”.
For `CC(C)=CCC1=C(OCc2cn(C(C3=C(C)C(=O)c4ccccc4C3=O)c3ccc(Br)cc3)nn2)C(=O)c2ccccc2C1=O` (stereo unspecified), the Activity (MCF7 [28]) was “inactive”.
In the case of `CC(C)=CC1=C(OCc2cn(CC3=C(C)C(=O)c4ccccc4C3=O)nn2)C(=O)c2ccccc2C1=O`, the Activity (MDA-MB-231 [1]) is reported as “inactive”, the Activity (MCF7 [2]) is reported as “Active” and the Activity (MCF7 [3]) is reported as “Active”. The Activity (MCF-10A [4]) was “Non-Toxic”, the Activity (MDA-MB-231 [5]) was “Active” and the Activity (MCF7 [6]) was “Dose-Dependent Effect”. The Activity (MDA-MB-231 [7]) was “inactive”, the Activity (MCF7 [29]) was “inactive” and the IC50 (MDA-MB-231 [8]) was 11.1 µM. The Activity (MCF-10A [9]) was “Non-Toxic”, the Activity (MDA-MB-231 [10]) was “Active” and the Activity (MCF7 [11]) was “Active”. For the same molecule, the Activity (MCF7 [12]) was “Active”, the Activity (MCF7 [13]) was “Tde” and the Activity (MCF7 [14]) was “Active”. For the same molecule, the IC50 (MCF7 [15]) was 4.4 µM, the Activity (MCF7 [16]) was “Tde” and the Activity (MCF7 [17]) was less than 90%. The Activity (MCF7 [18]) was “Active”, the Activity (MCF7 [19]) was “Dose-Dependent Effect” and the Activity (MDA-MB-231 [20]) was “Active”. For the same molecule, the Activity (MCF7 [21]) was “Active”, the Activity (MCF7 [22]) was less than 70% and the Activity (MCF7 [30]) was “Active”. For the same molecule, the Activity (MCF7 [23]) was “Active” and the Activity (MDA-MB-231 [24]) was “Active”.
For `CC(C)=CC1=C(OCc2cn(C(C3=C(C)C(=O)c4ccccc4C3=O)c3ccc(Br)cc3)nn2)C(=O)c2ccccc2C1=O` (stereo unspecified), the Activity (MCF7 [28]) was “inactive”.
`CCc1ccc(-n2cc(CCNC3=C(C)C(=O)c4ccccc4C3=O)nn2)cc1` gave an IC50 (MCF7 [15]) of 8.73 µM.
With `CC1=C(C(c2ccc(F)cc2)n2cc(CNC3=CC(=O)c4ccccc4C3=O)nn2)C(=O)c2ccccc2C1=O` (stereo unspecified) the Activity (MCF7 [28]) was “inactive”.
In the case of `CC(C)(C)c1ccc(-n2cc(CNC3=CC(=O)c4ccccc4C3=O)nn2)cc1`, the IC50 (MCF7 [15]) is reported as 21.2 µM.
For `CC(C)=CC1=C(OCc2cn(C(C3=C(C)C(=O)c4ccccc4C3=O)c3ccccc3)nn2)C(=O)c2ccccc2C1=O` (stereo unspecified), the Activity (MCF7 [21]) was “Active”.
In the case of `CC1=C(Cn2cc(CNC3=CC(=O)c4ccccc4C3=O)nn2)C(=O)c2ccccc2C1=O`, the Activity (MCF7 [21]) is reported as “Active”.
In the case of `CC(C)=CCC1=C(OCc2cn(C(C3=C(C)C(=O)c4ccccc4C3=O)c3ccc(Cl)cc3)nn2)C(=O)c2ccccc2C1=O` (stereo unspecified), the Activity (MCF7 [28]) is reported as “inactive”.
In the case of `CC1=C(C(C)n2cc(CNC3=CC(=O)c4ccccc4C3=O)nn2)C(=O)c2ccccc2C1=O` (stereo unspecified), the Activity (MCF7 [28]) is reported as “inactive”.
In the case of `O=C1C=C(NCc2cn(-c3ccc(C(F)(F)F)cc3)nn2)C(=O)c2ccccc21`, the IC50 (MCF7 [15]) is reported as 10.4 µM.
In the case of `CC(C)=CCC1=C(OCc2cn(CC3=C(C)C(=O)c4ccccc4C3=O)nn2)C(=O)c2ccccc2C1=O`, the Activity (MCF7 [28]) is reported as “inactive”.
`CC1=C(C(c2ccc(Br)cc2)n2cc(CNC3=CC(=O)c4ccccc4C3=O)nn2)C(=O)c2ccccc2C1=O` (stereo unspecified) was tested, and the Activity (MCF7 [28]) was “inactive”.
For `CC(C)=CCC1=C(OCc2cn(C(C)C3=C(C)C(=O)c4ccccc4C3=O)nn2)C(=O)c2ccccc2C1=O` (stereo unspecified), the Activity (MCF7 [28]) was “inactive”.
`CC(C)=CCC1=C(OCc2cn(C(C3=C(C)C(=O)c4ccccc4C3=O)c3ccccc3)nn2)C(=O)c2ccccc2C1=O` (stereo unspecified) was tested, and the Activity (MCF7 [21]) was “Active”.
With `CC(C)=CC1=C(OCc2cn(C(C3=C(C)C(=O)c4ccccc4C3=O)c3ccc(Cl)cc3)nn2)C(=O)c2ccccc2C1=O` (stereo unspecified) the Activity (MCF7 [28]) was “inactive”.
